Assay results: patent publication US20240350493A1 (Kadmon Corporation, LLC, priority 2022, published 2024)
Counter-ions that a name gives are not always drawn. Marks after values point to notes of the source that are not given here. One block for each compound: values may come before it.

Columns and labels:
[1] = tested on: patients with cGVHD; details: cited from earlier work
[2] = target: ROCK2 (Homo sapiens, UniProt O75116); assay: ROCK2 inhibition; type: biochemical
[3] = human, in vivo
[4] = phase I two-part drug-drug interaction study, plasma pharmacokinetics (Example 1); type: in vivo, human
From the text: The secondary objective was to provide additional information on the safety and tolerability of this dose regimen in healthy males.
This was a single center, non-randomized, DDI study in 35 (Part 1) and 38 (Part 2) healthy males. The key inclusion criterion was males aged 18 to 55 years (inclusive). […] In Part 2, co-administration with omeprazole was studied. The study design is illustrated in FIG. 1.
At least a 2-to 8-day washout occurred between each period to account for a minimum of 5 half-lives of the active moieties dosed in the preceding period.
Blood samples were collected into 6 mL K,EDTA tubes and were processed within 30 minutes of collection. The resultant plasma was then frozen within 90 minutes of collection and stored at […] until shipment to the bioanalytical laboratory.
For each comparison, PK parameters were natural log transformed and analyzed using mixed effect modeling with treatment included as a fixed effect and subject as a random effect. Adjusted geometric mean ratios (GMRs) and corresponding 90% CIs were calculated.

[5] = solubility of belumosudil mesylate in solvents; type: physicochemical
[6] = 200 mg belumosudil BID + omeprazole
[7] = 200 mg belumosudil BID + omeprazole, first dose
[8] = 200 mg belumosudil BID + omeprazole, second dose
[9] = 200 mg belumosudil BID alone, first dose
[10] = 200 mg belumosudil BID alone, second dose
[11] = 200 mg belumosudil single dose + rifampicin
[12] = 200 mg belumosudil single dose alone
[13] = coadministration of itraconazole
[14] = coadministration of rabeprazole
[15] = 200 mg belumosudil single dose + itraconazole
[16] = 200 mg belumosudil single dose + rabeprazole

Sequence of ROCK2 (O75116 whole entry): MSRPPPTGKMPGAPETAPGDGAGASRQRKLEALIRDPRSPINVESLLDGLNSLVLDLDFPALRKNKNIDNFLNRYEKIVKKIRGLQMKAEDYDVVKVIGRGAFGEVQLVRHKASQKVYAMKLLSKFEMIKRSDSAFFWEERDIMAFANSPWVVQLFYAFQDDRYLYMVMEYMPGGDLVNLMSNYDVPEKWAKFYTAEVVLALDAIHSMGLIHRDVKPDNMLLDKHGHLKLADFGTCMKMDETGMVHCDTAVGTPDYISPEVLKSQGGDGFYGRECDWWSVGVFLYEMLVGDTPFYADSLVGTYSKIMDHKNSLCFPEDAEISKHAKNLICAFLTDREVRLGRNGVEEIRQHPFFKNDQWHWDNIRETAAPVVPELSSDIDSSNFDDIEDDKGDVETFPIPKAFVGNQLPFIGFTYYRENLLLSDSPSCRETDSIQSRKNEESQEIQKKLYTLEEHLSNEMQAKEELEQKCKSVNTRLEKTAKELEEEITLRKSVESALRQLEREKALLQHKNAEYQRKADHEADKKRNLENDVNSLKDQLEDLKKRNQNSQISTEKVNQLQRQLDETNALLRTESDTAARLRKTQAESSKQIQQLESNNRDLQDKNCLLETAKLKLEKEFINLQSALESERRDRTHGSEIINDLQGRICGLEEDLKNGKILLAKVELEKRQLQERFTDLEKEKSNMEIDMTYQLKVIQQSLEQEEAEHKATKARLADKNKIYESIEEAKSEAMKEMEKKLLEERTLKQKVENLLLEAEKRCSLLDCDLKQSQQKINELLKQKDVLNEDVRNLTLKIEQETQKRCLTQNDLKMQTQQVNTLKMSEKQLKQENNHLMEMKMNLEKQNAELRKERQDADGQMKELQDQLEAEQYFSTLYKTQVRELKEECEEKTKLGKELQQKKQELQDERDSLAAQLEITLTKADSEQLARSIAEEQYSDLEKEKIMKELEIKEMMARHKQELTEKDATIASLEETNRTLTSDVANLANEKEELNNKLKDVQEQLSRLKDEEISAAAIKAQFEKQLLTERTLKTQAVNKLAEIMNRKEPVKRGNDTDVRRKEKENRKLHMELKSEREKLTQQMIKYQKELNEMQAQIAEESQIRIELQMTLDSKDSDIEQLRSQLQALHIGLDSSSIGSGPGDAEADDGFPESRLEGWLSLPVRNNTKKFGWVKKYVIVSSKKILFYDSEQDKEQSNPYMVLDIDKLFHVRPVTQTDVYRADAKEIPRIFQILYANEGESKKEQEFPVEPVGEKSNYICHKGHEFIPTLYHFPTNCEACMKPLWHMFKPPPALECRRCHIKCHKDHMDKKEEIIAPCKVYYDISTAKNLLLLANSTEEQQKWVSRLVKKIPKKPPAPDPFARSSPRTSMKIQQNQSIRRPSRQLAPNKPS

SMILES: C=CC(=O)N1CCC[C@@H](n2nc(-c3ccc(Oc4ccccc4)cc3)c3c(N)ncnc32)C1 [ibrutinib]
discontinuation rate because of treatment-emergent adverse events (TEAEs) [1]: 43%

ROCK2 activity of metabolite [2]: active
metabolite exposure relative to the parent [3]: < 5%
increase in AUClast vs belumosudil alone [4]: 150%
increase in Cmax vs belumosudil alone [4]: 129%
AUC0-24, arithmetic mean (SD) [4, 6]: 113 (81.2) ^q ng*h/mL
AUC0-24, geometric mean (geometric CV %) [4, 6]: 91.5 (76.3) ^q; ng*h/mL
AUCinf, arithmetic mean (SD) [4, 6]: 279 (122) ^t ng*h/mL
AUCinf, geometric mean (geometric CV %) [4, 6]: 265 (47.6) ^t; ng*h/mL
AUClast, arithmetic mean (SD) [4, 6]: 164 (100) ^q ng*h/mL
AUClast, geometric mean (geometric CV %) [4, 6]: 123 (114.0) ^q; ng*h/mL
t1/2, arithmetic mean (SD) [4, 6]: 2.31 (0.848) ^u h
t1/2, geometric mean (geometric CV %) [4, 6]: 2.21 (39.0) ^u; h
Cmax, arithmetic mean (SD) [4, 7]: 20.5 (11.4) ^j ng/mL
Cmax, geometric mean (geometric CV %) [4, 7]: 18.0 (54.6) ^j; ng/mL
Tmax, median (range) [4, 7]: 3.00 (1.00-5.00) h
Cmax, arithmetic mean (SD) [4, 8]: 21.2 (11.3) ^s ng/mL
Cmax, geometric mean (geometric CV %) [4, 8]: 18.9 (48.7) ^s; ng/mL
Tmax, median (range) [4, 8]: 16.50 (13.50-22.00) h
AUC0-24, arithmetic mean (SD) ([4]; 200 mg belumosudil BID alone): 187 (161) ^l ng*h/mL
AUC0-24, geometric mean (geometric CV %) ([4]; 200 mg belumosudil BID alone): 138 (91.3) ^l; ng*h/mL
AUCinf, arithmetic mean (SD) ([4]; 200 mg belumosudil BID alone): 287 (149) ^o ng*h/mL
AUCinf, geometric mean (geometric CV %) ([4]; 200 mg belumosudil BID alone): 259 (47.7) ^o; ng*h/mL
AUClast, arithmetic mean (SD) ([4]; 200 mg belumosudil BID alone): 205 (153) ^l ng*h/mL
AUClast, geometric mean (geometric CV %) ([4]; 200 mg belumosudil BID alone): 157 (93.0) ^l; ng*h/mL
t1/2, arithmetic mean (SD) ([4]; 200 mg belumosudil BID alone): 2.30 (0.757) ^p h
t1/2, geometric mean (geometric CV %) ([4]; 200 mg belumosudil BID alone): 2.19 (34.2) ^p; h
Cmax, arithmetic mean (SD) [4, 9]: 25.8 (12.6) ^n ng/mL
Cmax, geometric mean (geometric CV %) [4, 9]: 23.8 (39.6) ^n; ng/mL
Tmax, median (range) [4, 9]: 2.00 (1.00-6.00) h
Cmax, arithmetic mean (SD) [4, 10]: 26.1 (12.7) ^n ng/mL
Cmax, geometric mean (geometric CV %) [4, 10]: 23.6 (46.4) ^n; ng/mL
Tmax, median (range) [4, 10]: 13.98 (13.00-24.00) h
AUC0-24, arithmetic mean (SD) [4, 11]: 159 (61.2) ^c ng*h/mL
AUC0-24, geometric mean (geometric CV %) [4, 11]: 148 (41.9) ^c; ng*h/mL
AUCinf, arithmetic mean (SD) [4, 11]: 190 (37.7) ^i ng*h/mL
AUCinf, geometric mean (geometric CV %) [4, 11]: 187 (20.0) ^i; ng*h/mL
AUClast, arithmetic mean (SD) [4, 11]: 136 (55.5) ^c ng*h/mL
AUClast, geometric mean (geometric CV %) [4, 11]: 126 (41.7) ^c; ng*h/mL
Cmax, arithmetic mean (SD) [4, 11]: 55.2 (17.1) ^c ng/mL
Cmax, geometric mean (geometric CV %) [4, 11]: 52.5 (34.0) ^c; ng/mL
Tmax, median (range) [4, 11]: 2.08 (1.50-5.00) h
t1/2, arithmetic mean (SD) [4, 11]: 1.55 (0.325) ^j h
t1/2, geometric mean (geometric CV %) [4, 11]: 1.51 (21.4) ^j; h
AUC0-24, arithmetic mean (SD) [4, 12]: 81.3 (30.7) ^e ng*h/mL
AUC0-24, geometric mean (geometric CV %) [4, 12]: 75.6 (42.1) ^e; ng*h/mL
AUClast, arithmetic mean (SD) [4, 12]: 58.4 (18.7) ^e ng*h/mL
AUClast, geometric mean (geometric CV %) [4, 12]: 55.3 (36.4) ^e; ng*h/mL
Cmax, arithmetic mean (SD) [4, 12]: 24.9 (9.21) ^b ng/mL
Cmax, geometric mean (geometric CV %) [4, 12]: 23.2 (40.0) ^b; ng/mL
Tmax, median (range) [4, 12]: 3.00 (1.00-5.00) h
t1/2, arithmetic mean (SD) [4, 12]: 1.96 (0.931) ^f h
t1/2, geometric mean (geometric CV %) [4, 12]: 1.82 (38.5) ^f; h
metabolite levels [4, 14]: nonquantifiable in all but 1 subject
SMILES: NC(=O)COc1cccc(-c2nc(Nc3ccc4[nH]ncc4c3)c3ccccc3n2)c1 [KD025m1]
metabolite concentrations [4, 13]: nonquantifiable levels in all but 1 subject

ROCK2 activity of metabolite [2]: inactive
AUC0-24, geometric mean (geometric CV %) [4, 6]: 767 (115.3) ^k; ng*h/mL
AUCinf, arithmetic mean (SD) [4, 6]: 1430 (981) ^q ng*h/mL
AUCinf, geometric mean (geometric CV %) [4, 6]: 1110 (90.3) ^q; ng*h/mL
AUClast, arithmetic mean (SD) [4, 6]: 1160 (998) ^k ng*h/mL
AUClast, geometric mean (geometric CV %) [4, 6]: 783 (122.6) ^k; ng*h/mL
t1/2, arithmetic mean (SD) [4, 6]: 3.20 (2.10) ^r h
t1/2, geometric mean (geometric CV %) [4, 6]: 2.76 (55.1) ^r h
Cmax, arithmetic mean (SD) [4, 7]: 129 (133) ^l ng/mL
Cmax, geometric mean (geometric CV %) [4, 7]: 72.3 (166.8) ^l; ng/mL
Cmax, arithmetic mean (SD) [4, 8]: 172 (160) ^n ng/mL
Cmax, geometric mean (geometric CV %) [4, 8]: 115 (121.8) ^n; ng/mL
AUC0-24, geometric mean (geometric CV %) ([4]; 200 mg belumosudil BID alone): 1950 (82.3) ^k; ng*h/mL
AUCinf, arithmetic mean (SD) ([4]; 200 mg belumosudil BID alone): 2550 (2200) ^c ng*h/mL
AUCinf, geometric mean (geometric CV %) ([4]; 200 mg belumosudil BID alone): 1900 (90.4) ^c; ng*h/mL
AUClast, arithmetic mean (SD) ([4]; 200 mg belumosudil BID alone): 2690 (2090) ^k ng*h/mL
AUClast, geometric mean (geometric CV %) ([4]; 200 mg belumosudil BID alone): 2030 (91.1) ^k; ng*h/mL
t1/2, arithmetic mean (SD) ([4]; 200 mg belumosudil BID alone): 5.70 (5.24) ^c h
t1/2, geometric mean (geometric CV %) ([4]; 200 mg belumosudil BID alone): 4.32 (78.9) ^c h
Cmax, arithmetic mean (SD) [4, 9]: 343 (202) ^k ng/mL
Cmax, geometric mean (geometric CV %) [4, 9]: 282 (75.6) ^k; ng/mL
Cmax, arithmetic mean (SD) [4, 10]: 323 (207) ng/mL
Cmax, geometric mean (geometric CV %) [4, 10]: 257 (83.9); ng/mL
AUC0-24, geometric mean (geometric CV %) [4, 15]: 745 (70.7); ng*h/mL
AUCinf, arithmetic mean (SD) [4, 15]: 1050 (792) ^c ng*h/mL
AUCinf, geometric mean (geometric CV %) [4, 15]: 843 (73.7) ^c; ng*h/mL
AUClast, arithmetic mean (SD) [4, 15]: 891 (710) ng*h/mL
AUClast, geometric mean (geometric CV %) [4, 15]: 704 (75.5); ng*h/mL
Cmax, arithmetic mean (SD) [4, 15]: 257 (152) ng/mL
Cmax, geometric mean (geometric CV %) [4, 15]: 221 (60.8); ng/mL
t1/2, arithmetic mean (SD) [4, 15]: 4.00 (3.69) ^g h
t1/2, geometric mean (geometric CV %) [4, 15]: 2.89 (92.2) ^g h
AUC0-24, geometric mean (geometric CV %) [4, 16]: 110 (84.0) ^v; ng*h/mL
AUCinf, arithmetic mean (SD) [4, 16]: 175 (19.4) ^t ng*h/mL
AUCinf, geometric mean (geometric CV %) [4, 16]: 174 (11.1) ^t; ng*h/mL
AUClast, arithmetic mean (SD) [4, 16]: 108 (76.5) ^v ng*h/mL
AUClast, geometric mean (geometric CV %) [4, 16]: 85.8 (81.6) ^v; ng*h/mL
Cmax, arithmetic mean (SD) [4, 16]: 29.4 (23.8) ^c ng/mL
Cmax, geometric mean (geometric CV %) [4, 16]: 23.5 (70.7) ^c; ng/mL
t1/2, arithmetic mean (SD) [4, 16]: 3.59 (1.84) ^w h
t1/2, geometric mean (geometric CV %) [4, 16]: 3.10 (69.6) ^w h
AUC0-24, geometric mean (geometric CV %) [4, 11]: 376 (56.7) ^c; ng*h/mL
AUCinf, arithmetic mean (SD) [4, 11]: 444 (237) ^h ng*h/mL
AUCinf, geometric mean (geometric CV %) [4, 11]: 396 (50.2) ^h; ng*h/mL
AUClast, arithmetic mean (SD) [4, 11]: 407 (237) ^c ng*h/mL
AUClast, geometric mean (geometric CV %) [4, 11]: 349 (61.1) ^c; ng*h/mL
Cmax, arithmetic mean (SD) [4, 11]: 169 (85.8) ^c ng/mL
Cmax, geometric mean (geometric CV %) [4, 11]: 148 (57.3) ^c; ng/mL
t1/2, arithmetic mean (SD) [4, 11]: 1.31 (0.368) ^h
t1/2, geometric mean (geometric CV %) [4, 11]: 1.27 (26.8) ^h
AUC0-24, geometric mean (geometric CV %) [4, 12]: 1100 (63.7); ng*h/mL
AUCinf, arithmetic mean (SD) [4, 12]: 1460 (910) ^d ng*h/mL
AUCinf, geometric mean (geometric CV %) [4, 12]: 1230 (69.5) ^d; ng*h/mL
AUClast, arithmetic mean (SD) [4, 12]: 1260 (811) ng*h/mL
AUClast, geometric mean (geometric CV %) [4, 12]: 1050 (68.1); ng*h/mL
Cmax, arithmetic mean (SD) [4, 12]: 379 (182) ng/mL
Cmax, geometric mean (geometric CV %) [4, 12]: 337 (54.7); ng/mL
t1/2, arithmetic mean (SD) [4, 12]: 3.86 (3.24) ^d h
t1/2, geometric mean (geometric CV %) [4, 12]: 3.03 (76.8) ^d h
decrease in AUCinf vs belumosudil alone [4, 13]: 33%
decrease in AUClast vs belumosudil alone [4, 13]: 33%
decrease in Cmax vs belumosudil alone [4, 13]: 35%
decrease in AUC0-24 vs belumosudil alone ([4]; coadministration of omeprazole): ~63%
decrease in Cmax (first dose) vs belumosudil alone ([4]; coadministration of omeprazole): ~73%
decrease in Cmax, second dose vs belumosudil alone ([4]; coadministration of omeprazole): ~57%
decrease in AUClast vs belumosudil alone [4, 14]: 94%
decrease in Cmax vs belumosudil alone [4, 14]: 93%
SMILES: O=C(O)COc1cccc(-c2nc(Nc3ccc4[nH]ncc4c3)c3ccccc3n2)c1 [KD025m2]

SMILES: CC(C)NC(=O)COc1cccc(-c2nc(Nc3ccc4[nH]ncc4c3)c3ccccc3n2)c1 [Belumosudil mesylate, 2-{3-[4-(1H-indazol-5-ylamino)-2-quinazolinyl]phenoxy}-N-(propan-2-yl) acetamide methanesulfonate (1:1)]
solubility in DMF ([5]; DMF): slightly soluble
solubility in DMSO ([5]; DMSO): soluble
solubility in methanol ([5]; methanol): slightly soluble
solubility in water ([5]; water): practically insoluble
